Measurements from ChEMBL document CHEMBL4270599, “Synthesis of a 3'-C-ethynyl-β-d-ribofuranose purine nucleoside library: Discovery of C7-deazapurine analogs as potent antiproliferative nucleosides” (Eur J Med Chem, 2018).

What was measured:
Assay type in all cases: functional
NCI-H460 [1] = assay: Cytotoxicity against human NCI-H460 cells after 48 hrs by SRB assay; settings: NCI-H460, 48 h; for GI50: read-out: pGI50 (converted)
SF-268 = assay: Cytotoxicity against human SF268 cells after 48 hrs by SRB assay; settings: SF-268, 48 h; for GI50: read-out: pGI50 (converted)
SNB-19 [2] = assay: Cytotoxicity against human SNB19 cells after 48 hrs by SRB assay; settings: SNB-19, 48 h; for GI50: read-out: pGI50 (converted)
SNB-75 [3] = assay: Cytotoxicity against human SNB75 cells after 48 hrs by SRB assay; settings: SNB-75, 48 h; for GI50: read-out: pGI50 (converted)
MDA-MB-231 = assay: Cytotoxicity against human MDA-MB-231 cells after 48 hrs by SRB assay; settings: MDA-MB-231, 48 h; for GI50: read-out: pGI50 (converted)
RPMI-8226 = assay: Growth inhibition of human RPMI8226 cells assessed as cell growth at 10^-8 M incubated for 48 hrs by sulforhodamine B assay relative to control; settings: RPMI-8226, 48 h, read-out: Activity
NCI-H460 [4] = assay: Growth inhibition of human NCI-H460 cells assessed as cell growth at 10^-8 M incubated for 48 hrs by sulforhodamine B assay relative to control; settings: NCI-H460, 48 h, read-out: Activity
U-251 [5] = assay: Growth inhibition of human U251 cells assessed as cell growth at 10^-8 M incubated for 48 hrs by sulforhodamine B assay relative to control; settings: U-251, 48 h, read-out: Activity
SK-MEL-2 = assay: Growth inhibition of human SK-MEL-2 cells assessed as cell growth at 10^-8 M incubated for 48 hrs by sulforhodamine B assay relative to control; settings: SK-MEL-2, 48 h, read-out: Activity
T47D = assay: Growth inhibition of human T47D cells assessed as cell growth at 10^-8 M incubated for 48 hrs by sulforhodamine B assay relative to control; settings: read-out: Activity
NCI-H322M [6] = assay: Growth inhibition of human NCI-H322M cells assessed as cell growth at 10^-7 M incubated for 48 hrs by sulforhodamine B assay relative to control; settings: read-out: Activity
HCT-116 = assay: Growth inhibition of human HCT116 cells assessed as cell growth at 10^-7 M incubated for 48 hrs by sulforhodamine B assay relative to control; settings: HCT-116, 48 h, read-out: Activity
SW-620 [7] = assay: Growth inhibition of human SW620 cells assessed as cell growth at 10^-7 M incubated for 48 hrs by sulforhodamine B assay relative to control; settings: SW-620, 48 h, read-out: Activity
SF-295 = assay: Growth inhibition of human SF295 cells assessed as cell growth at 10^-7 M incubated for 48 hrs by sulforhodamine B assay relative to control; settings: SF-295, 48 h, read-out: Activity
MDA-MB-435 = assay: Growth inhibition of human MDA-MB-435 cells assessed as cell growth at 10^-7 M incubated for 48 hrs by sulforhodamine B assay relative to control; settings: MDA-MB-435, 48 h, read-out: Activity
OVCAR-5 [8] = assay: Growth inhibition of human OVCAR5 cells assessed as cell growth at 10^-7 M incubated for 48 hrs by sulforhodamine B assay relative to control; settings: OVCAR-5, 48 h, read-out: Activity
SK-OV-3 = assay: Growth inhibition of human SKOV3 cells assessed as cell growth at 10^-7 M incubated for 48 hrs by sulforhodamine B assay relative to control; settings: SK-OV-3, 48 h, read-out: Activity
UO-31 = assay: Growth inhibition of human UO31 cells assessed as cell growth at 10^-7 M incubated for 48 hrs by sulforhodamine B assay relative to control; settings: UO-31, 48 h, read-out: Activity
SNB-75 [9] = assay: Growth inhibition of human SNB75 cells assessed as cell growth at 10^-6 M incubated for 48 hrs by sulforhodamine B assay relative to control; settings: SNB-75, 48 h, read-out: Activity
SK-MEL-28 = assay: Growth inhibition of human SK-MEL-28 cells assessed as cell growth at 10^-6 M incubated for 48 hrs by sulforhodamine B assay relative to control; settings: SK-MEL-28, 48 h, read-out: Activity
SK-MEL-5 = assay: Growth inhibition of human SK-MEL-5 cells assessed as cell growth at 10^-6 M incubated for 48 hrs by sulforhodamine B assay relative to control; settings: SK-MEL-5, 48 h, read-out: Activity
OVCAR-5 [10] = assay: Growth inhibition of human OVCAR5 cells assessed as cell growth at 10^-6 M incubated for 48 hrs by sulforhodamine B assay relative to control; settings: OVCAR-5, 48 h, read-out: Activity
NCI/ADR-RES = assay: Growth inhibition of human NCI/ADR-RES cells assessed as cell growth at 10^-6 M incubated for 48 hrs by sulforhodamine B assay relative to control; settings: read-out: Activity
NCI-H322M [11] = assay: Growth inhibition of human NCI-H322M cells assessed as cell growth at 10^-5 M incubated for 48 hrs by sulforhodamine B assay relative to control; settings: read-out: Activity
SW-620 [12] = assay: Growth inhibition of human SW620 cells assessed as cell growth at 10^-5 M incubated for 48 hrs by sulforhodamine B assay relative to control; settings: SW-620, 48 h, read-out: Activity
SNB-19 [13] = assay: Growth inhibition of human SNB19 cells assessed as cell growth at 10^-5 M incubated for 48 hrs by sulforhodamine B assay relative to control; settings: SNB-19, 48 h, read-out: Activity
U-251 [14] = assay: Growth inhibition of human U251 cells assessed as cell growth at 10^-5 M incubated for 48 hrs by sulforhodamine B assay relative to control; settings: U-251, 48 h, read-out: Activity
Malme-3M = assay: Growth inhibition of human MALME-3M cells assessed as cell growth at 10^-5 M incubated for 48 hrs by sulforhodamine B assay relative to control; settings: read-out: Activity
OVCAR-4 = assay: Growth inhibition of human OVCAR4 cells assessed as cell growth at 10^-5 M incubated for 48 hrs by sulforhodamine B assay relative to control; settings: OVCAR-4, 48 h, read-out: Activity
SR = assay: Growth inhibition of human SR cells assessed as cell growth at 10^-4 M incubated for 48 hrs by sulforhodamine B assay relative to control; settings: read-out: Activity
SN12C = assay: Growth inhibition of human SN12C cells assessed as cell growth at 10^-4 M incubated for 48 hrs by sulforhodamine B assay relative to control; settings: read-out: Activity
PC-3 = assay: Growth inhibition of human PC3 cells assessed as cell growth at 10^-4 M incubated for 48 hrs by sulforhodamine B assay relative to control; settings: PC-3, 48 h, read-out: Activity
UACC-62 = assay: Growth inhibition of human UACC62 cells assessed as cell growth at 10^-7 M incubated for 48 hrs by sulforhodamine B assay relative to control; settings: UACC-62, 48 h, read-out: Activity
[15] = read-out: pLC50 (the source's name) (converted)
[16] = read-out: LC50 (the source's name)

## C#C[C@@]1(O)[C@@H](CO)O[C@@H](n2ccc3c(N)ncnc32)[C@@H]1O
NCI-H460 [1]; read-out: TGI
  TGI: 10.6 µM
NCI-H460 [1]
  GI50: 0.468 µM
NCI-H460 [1]; [15]
  CC50: > 100 µM
NCI-H460 [1]; read-out: pTGI (converted)
  TGI: 10.7 µM
SF-268; read-out: TGI
  TGI: 26.1 µM
SF-268
  GI50: 2.34 µM
SF-268; [15]
  CC50: > 100 µM
SF-268; read-out: pTGI (converted)
  TGI: 26.3 µM
SNB-19 [2]; read-out: TGI
  TGI: 6.6 µM
SNB-19 [2]
  GI50: 1.62 µM
SNB-19 [2]; [15]
  CC50: > 100 µM
SNB-19 [2]; read-out: pTGI (converted)
  TGI: 6.61 µM
SNB-75 [3]; read-out: TGI
  TGI: 3.84 µM
SNB-75 [3]
  GI50: 1.82 µM
SNB-75 [3]; read-out: pTGI (converted)
  TGI: 3.8 µM
MDA-MB-231; read-out: TGI
  TGI: 5.89 µM
MDA-MB-231
  GI50: 1.51 µM
MDA-MB-231; [15]
  CC50: 83.2 µM
MDA-MB-231; read-out: pTGI (converted)
  TGI: 5.89 µM
RPMI-8226
  growth at 0.01 µM: 103%
NCI-H460 [4]
  growth at 0.01 µM: 89%
U-251 [5]
  growth at 0.01 µM: 102%
SK-MEL-2
  growth at 0.01 µM: 88%
T47D
  growth at 0.01 µM: 92%
NCI-H322M [6]
  growth at 0.1 µM: 94%
HCT-116
  growth at 0.1 µM: 92%
SW-620 [7]
  growth at 0.1 µM: 77%
SF-295
  growth at 0.1 µM: 98%
MDA-MB-435
  growth at 0.1 µM: 99%
OVCAR-5 [8]
  growth at 0.1 µM: 106%
SK-OV-3
  growth at 0.1 µM: 92%
UO-31
  growth at 0.1 µM: 105%
SNB-75 [9]
  growth at 1 µM: 90%
SK-MEL-28
  growth at 1 µM: 94%
SK-MEL-5
  growth at 1 µM: 85%
OVCAR-5 [10]
  growth at 1 µM: 106%
NCI/ADR-RES
  growth at 1 µM: 45%
NCI-H322M [11]
  growth at 10 µM: -16%
SW-620 [12]
  growth at 10 µM: 5%
SNB-19 [13]
  growth at 10 µM: -15%
U-251 [14]
  growth at 10 µM: 2%
Malme-3M
  growth at 10 µM: -25%
OVCAR-4
  growth at 10 µM: -9%
SR
  growth at 100 µM: 11%
SN12C
  growth at 100 µM: -64%
PC-3
  growth at 100 µM: -62%
UACC-62
  growth at 0.1 µM: 101%

## C#C[C@@]1(O)[C@@H](CO)O[C@@H](n2cc(F)c3c(N)ncnc32)[C@@H]1O
NCI-H460 [1]; [16]
  CC50: > 100 µM
NCI-H460 [1]; read-out: TGI
  TGI: 10.2 µM
NCI-H460 [1]
  GI50: 0.229 µM
NCI-H460 [1]; read-out: pTGI (converted)
  TGI: 10.2 µM
SF-268; [16]
  CC50: > 100 µM
SF-268; read-out: TGI
  TGI: 78.3 µM
SF-268
  GI50: 0.759 µM
SF-268; read-out: pTGI (converted)
  TGI: 77.6 µM
SNB-19 [2]; [16]
  CC50: > 100 µM
SNB-19 [2]; read-out: TGI
  TGI: 13.7 µM
SNB-19 [2]
  GI50: 0.525 µM
SNB-19 [2]; read-out: pTGI (converted)
  TGI: 13.8 µM
SNB-75 [3]; read-out: TGI
  TGI: 2.32 µM
SNB-75 [3]
  GI50: 1.02 µM
SNB-75 [3]; [15]
  CC50: 5.25 µM
SNB-75 [3]; read-out: pTGI (converted)
  TGI: 2.34 µM
MDA-MB-231; [16]
  CC50: > 100 µM
MDA-MB-231; read-out: TGI
  TGI: 2.98 µM
MDA-MB-231
  GI50: 0.38 µM
MDA-MB-231; read-out: pTGI (converted)
  TGI: 2.95 µM
RPMI-8226
  growth at 0.01 µM: 94%
NCI-H460 [4]
  growth at 0.01 µM: 100%
U-251 [5]
  growth at 0.01 µM: 97%
SK-MEL-2
  growth at 0.01 µM: 103%
T47D
  growth at 0.01 µM: 101%
NCI-H322M [6]
  growth at 0.1 µM: 94%
HCT-116
  growth at 0.1 µM: 60%
SW-620 [7]
  growth at 0.1 µM: 61%
SF-295
  growth at 0.1 µM: 94%
MDA-MB-435
  growth at 0.1 µM: 86%
OVCAR-5 [8]
  growth at 0.1 µM: 108%
SK-OV-3
  growth at 0.1 µM: 81%
UO-31
  growth at 0.1 µM: 104%
SNB-75 [9]
  growth at 1 µM: 52%
SK-MEL-28
  growth at 1 µM: 72%
SK-MEL-5
  growth at 1 µM: 13%
OVCAR-5 [10]
  growth at 1 µM: 65%
NCI/ADR-RES
  growth at 1 µM: 22%
NCI-H322M [11]
  growth at 10 µM: -17%
SW-620 [12]
  growth at 10 µM: -5%
SNB-19 [13]
  growth at 10 µM: 7%
U-251 [14]
  growth at 10 µM: 1%
Malme-3M
  growth at 10 µM: -34%
OVCAR-4
  growth at 10 µM: -3%
SR
  growth at 100 µM: 3%
SN12C
  growth at 100 µM: -24%
PC-3
  growth at 100 µM: -31%
UACC-62
  growth at 0.1 µM: 91%
